Experimental data: patent US12378211B2, “Carbonic anhydrase inhibitors and antibiotics against multidrug resistant bacteria” (Purdue Research Foundation, priority 2018, dated 2025)
In brackets after ≈: the same amount, converted by molar mass. Read-outs that look alike come from different tables or passages of the source.

How the values were obtained:
[1] = tested on: Enterococcus faecalis-S613 HM-334; test: MIC in presence of 4% human serum albumin; type: cell-based; details: TSB supplemented with 4% human serum albumin
Experimental: The minimum inhibitory concentrations (MICs) of CAIs were tested against vancomycin resistant Enterococcus faecalis—S613 HM 334 strain as per the guidelines provided by the Clinical and Laboratory Standards Institute (CLSI). The selected strain was streaked on Tryptic Soy Agar (TSA) plate and let grow for 24 hours at 37° C. Afterwards, a bacterial solution equivalent to 0.5 McFarland standard was prepared and diluted in tryptone soy broth (TSB) supplemented with 4% human serum albumin (HAS) to achieve a bacterial concentration of about 5×10^5 CFU/mL and seeded in 96-well well plates. Compounds and control drugs were added in the first row of the 96-well plates and serially diluted along the plates. Plates were then incubated aerobically at 37° C. for 18-20 hours. MICs reported in table (6) are the minimum concentration of the compounds/control drugs that could inhibit completely the visual growth of the bacteria.

[2] = tested on: Lactobacillus gasseri EX336960VC03 HIM-400; test: MIC against human normal gut microbiota; type: cell-based; details: MRS broth, 5% CO2, 48 hours
Summary of the method: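 Anaerobic gut strains in hemin/vitamin K/L-cysteine-supplemented BHI, Lactobacillus in MRS with 5% CO2. All at ~5×10^5 CFU/ml and 37° C, with 48 h exposure to compound dilution series.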

[3] = tested on: Mutant-14 of Enterococcus fecalis NR 31975; test: microbe, parasite or virus in culture; type: cell-based
[4] = tested on: Mutant-4 of Enterococcus fecalis NR 31975; test: microbe, parasite or virus in culture; type: cell-based
[5] = tested on: Mutant-8 of Enterococcus fecalis NR 31975; test: microbe, parasite or virus in culture; type: cell-based
[6] = tested on: Wild-type E. fecalis (NR 31975); test: MIC against wild-type strain (mutant study); type: cell-based, Enterococcus fecalis
[7] = tested on: human colorectal adenocarcinoma (Caco-2) cell; test: In vitro cytotoxicity, MTS assay, Caco-2 cells; details: at concentration up to 128 μg/mL; tested at 64 and 128 μg/mL; two hours
Experimental: Method: Compounds AS005H, AS005J, AS004B, AS005K, AS005A and 005D were assayed (at concentrations of 64 and 128 μg/mL) against a human colorectal adenocarcinoma (Caco-2) cell to determine the potential toxic effect to mammalian cells in vitro. Briefly, cells were cultured in Dulbecco's Modified Eagle Medium (DMEM) supplemented with 20% fetal bovine serum (FBS), non-essential amino acids (1×), penicillin-streptomycin at 37° C. with CO2 (5%). Control cells received DMSO alone at a concentration equal to that in drug-treated cell samples. The cells were incubated with the compounds (in triplicate) in a 96-well plate at 37° C. with CO2 (5%) for two hours. The assay reagent MTS 3-(4,5-dimethylthiazol-2-yl)-5-(3-carboxymethoxyphenyl)-2-(4-sulfophenyl)-2H-tetrazolium) (Promega, Madison, WI, USA) was subsequently added and the plate was incubated for four hours. Absorbance readings (at OD490) were taken using a kinetic microplate reader (Molecular Devices, Sunnyvale, CA, USA). The quantity of viable cells after treatment with each compound was expressed as a percentage of the viability of DMSO-treated control cells (average of triplicate wells±standard deviation). The toxicity data was analyzed via a two-way ANOVA, with post hoc Dunnet's multiple comparisons test (P<0.05), utilizing GraphPad Prism 6.0 (GraphPad Software, La Jolla, CA).
Percent viable mammalian cells (measured as average absorbance ratio (test agent relative to DMSO) for cytotoxicity analysis of AS005H, AS005J, AS004B, AS005K, AS005A and 005D compounds (tested in triplicate) at 64 and 128 μg/mL against Caco-2 cells using the MTS 3-(4,5-dimethylthiazol-2-yl)-5-(3-carboxymethoxyphenyl)-2-(4-sulfophenyl)-2H-tetrazolium) assay. Dimethyl sulfoxide (DMSO) was used as a negative control to determine a baseline measurement for the cytotoxic impact of each compound. The absorbance values represent an average of a minimum of three samples analyzed for each compound. Error bars represent standard deviation values for the absorbance values. […]

[8] = tested on: fibroblast-like monkey kidney cell line (VERO cell); test: In vitro cytotoxicity, MTS assay, VERO cells; type: cell-based; details: at concentration up to 128 μg/mL; tested at 64 and 128 μg/mL; two hours
Experimental: Toxicity assessment: Compounds AS005H, AS005J, AS004B, AS005K, AS005A and 005D were assayed (at concentrations of 64 and 128 μg/mL) against a fibroblast-like monkey kidney cell line (VERO cell) to determine the potential toxic effect in vitro. Briefly, cells were cultured in Minimum Essential Medium (MEM) supplemented with 10% fetal bovine serum (FBS), 1 mM sodium pyruvate, and penicillin-streptomycin at 37° C. with CO2 (5%). Control cells received DMSO alone at a concentration equal to that in drug-treated cell samples. The cells were incubated with the compounds (in triplicate) in a 96-well plate at 37° C. with CO2 (5%) for two hours. The assay reagent MTS 3-(4,5-dimethylthiazol-2-yl)-5-(3-carboxymethoxyphenyl)-2-(4-sulfophenyl)-2H-tetrazolium) (Promega, Madison, WI, USA) was subsequently added and the plate was incubated for four hours. Absorbance readings (at OD490) were taken using a kinetic microplate reader (Molecular Devices, Sunnyvale, CA, USA). The quantity of viable cells after treatment with each compound was expressed as a percentage of the viability of DMSO-treated control cells (average of triplicate wells±standard deviation). The toxicity data was analyzed via a two-way ANOVA, with post hoc Dunnet's multiple comparisons test (P<0.05), utilizing GraphPad Prism 6.0 (GraphPad Software, La Jolla, CA).
Percent viable mammalian cells (measured as average absorbance ratio (test agent relative to DMSO) for cytotoxicity analysis of compounds AS005H, AS005J, AS004B, AS005K, AS005A and 005D (tested in triplicates) at 64 and 128 μg/mL against VERO cells using the MTS 3-(4,5-dimethylthiazol-2-yl)-5-(3-carboxymethoxyphenyl)-2-(4-sulfophenyl)-2H-tetrazolium) assay. Dimethyl sulfoxide (DMSO) was used as a negative control to determine a baseline measurement for the cytotoxic impact of each compound. The absorbance values represent an average of a minimum of three samples analyzed for each compound. Error bars represent standard deviation values for the absorbance values.

[9] = Lactobacillus gasseri, read-out: MIC
[10] = Enterococcus, Table 4, read-out: MIC

Compound | MIC ([1]; Enterococcus, read-out: MIC) | MIC [2, 9] | MIC ([3]; Enterococcus) | MIC ([4]; Enterococcus) | MIC ([5]; Enterococcus) | MIC [6, 10] | toxicity to Caco-2 cells (percent viable cells relative to DMSO) [7] | toxicity to VERO cells (percent viable cells relative to DMSO) [8] | MIC [1] | MIC [2] | MIC ([6]; Table 4) | MIC ([3]; Mutant-14) | MIC ([4]; Mutant-4) | MIC ([5]; Mutant-8)
CC(=O)Nc1nnc(S(N)(=O)=O)s1 [Acetazolamide, reference compound] | > 256 µg/mL | > 64 µg/mL | 32 µg/mL (≈ 144 µM) | 32 µg/mL (≈ 144 µM) | 32 µg/mL (≈ 144 µM) |  |  |  |  |  |  |  |  | 
CC(C)(C)C(=O)Nc1nnc(S(N)(=O)=O)s1 [CAI0010, N-(5-Sulfamoyl-1,3,4-thiadiazol-2-yl) pivalamide] | > 256 µg/mL | > 64 µg/mL | 4 µg/mL (≈ 15.1 µM) | 8 µg/mL (≈ 30.3 µM) | 8 µg/mL (≈ 30.3 µM) | 0.5 µg/mL (≈ 1.89 µM) | non-toxic | non-toxic |  |  |  |  |  | 
CC(C)C(=O)Nc1nnc(S(N)(=O)=O)s1 [CAI0011, N-(5-Sulfamoyl-1,3,4-thiadiazol-2-yl) isobutyramide] |  | > 64 µg/mL |  |  |  |  | non-toxic | non-toxic |  |  |  |  |  | 
NS(=O)(=O)c1nnc(NC(=O)CCC2CCCC2)s1 [CAI0015] |  |  |  |  |  |  |  | non-toxic | >256 µg/mL | >64 µg/mL | 0.0625 µg/mL (≈ 0.205 µM) | 1 µg/mL (≈ 3.29 µM) | 1 µg/mL (≈ 3.29 µM) | 2 µg/mL (≈ 6.57 µM)
CC(C)=CC(=O)Nc1nnc(S(N)(=O)=O)s1 [CAI0016, 3-Methyl-N-(5-sulfamoyl-1,3,4-thiadiazol-2-yl) but-2-enamide] |  |  |  |  |  |  |  | non-toxic | >256 µg/mL | >64 µg/mL | 1 µg/mL (≈ 3.81 µM) | 4 µg/mL (≈ 15.2 µM) | 8 µg/mL (≈ 30.5 µM) | 4 µg/mL (≈ 15.2 µM)
CCc1ccc(C(=O)Nc2nnc(S(N)(=O)=O)s2)cc1 [CAI0017, 4-Ethyl-N-(5-sulfamoyl-1,3,4-thiadiazol-2-yl)benzamide] |  | > 64 µg/mL | 8 µg/mL (≈ 25.6 µM) | 16 µg/mL (≈ 51.2 µM) | 8 µg/mL (≈ 25.6 µM) | 2 µg/mL (≈ 6.4 µM) | non-toxic | non-toxic |  |  |  |  |  | 
CC(=O)NC[C@H]1CN(c2ccc(N3CCOCC3)c(F)c2)C(=O)O1 [Linezolid, reference compound] |  | 2 µg/mL (≈ 5.93 µM) | 4 µg/mL (≈ 11.9 µM) | 4 µg/mL (≈ 11.9 µM) | 8 µg/mL (≈ 23.7 µM) |  |  |  |  |  |  |  |  | 
